# From ChEMBL document CHEMBL1201862, “PubChem BioAssay data set” (2004)
#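 1) Cells in 96-well plates. 2) Compound, 48 h, 5 concentrations. 3) Linear interpolation between surrounding doses. 4) Unreached endpoint = highest concentration. GI50 = concentration required for 50% inhibition of growth.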 Activity calls are given as the source filed them. Rule as the data show it: active = GI50 up to about 1.1 µM and inactive = higher.
# Assays:
# Assay in all cases: DTP human tumour cell line panel, 48 h
# BT-549 = test system: BT-549
# MCF7 = test system: MCF7
# SF-539 = test system: SF-539
# OVCAR-5 = test system: OVCAR-5
# NCI-H23 = test system: NCI-H23
# NCI-H226 = test system: NCI-H226
# SK-MEL-2 = test system: SK-MEL-2
# RXF 393 = test system: RXF 393
# HT-29 = test system: HT-29
# SF-295 = test system: SF-295
# DU-145 = test system: DU-145
# HCT-15 = test system: HCT-15
# HOP-92 = test system: HOP-92
# NCI-H460 = test system: NCI-H460
# K562 = test system: K562
# A549 = test system: A549
# CAKI-1 = test system: CAKI-1
# HCT-116 = test system: HCT-116
# NCI-H522 = test system: NCI-H522
# HCC 2998 = test system: HCC 2998
SMILES,GI50 (BT-549),GI50 (MCF7),GI50 (SF-539),GI50 (OVCAR-5),GI50 (NCI-H23),GI50 (NCI-H226),GI50 (SK-MEL-2),GI50 (RXF 393),GI50 (HT-29),GI50 (SF-295),GI50 (DU-145),GI50 (HCT-15),GI50 (HOP-92),GI50 (NCI-H460),GI50 (K562),GI50 (A549),GI50 (CAKI-1),GI50 (HCT-116),GI50 (NCI-H522),GI50 (HCC 2998)
NN/C(=N\S(=O)(=O)c1cccc2nsnc12)Nc1ccc(Cl)cc1,> 100 µM (inactive),> 100 µM (inactive),> 100 µM (inactive),> 100 µM (inactive),> 100 µM (inactive),> 100 µM (inactive),> 100 µM (inactive),> 100 µM (inactive),> 100 µM (inactive),> 100 µM (inactive),> 100 µM (inactive),> 100 µM,> 100 µM (inactive),> 100 µM (inactive),> 100 µM (inactive),> 100 µM (inactive),> 100 µM (inactive),> 100 µM (inactive),,
Cc1cccc(Nc2nn3c(=O)c4c5c(sc4nc3s2)CCCC5)c1,25.8 µM (inactive),6.17 µM (inactive),> 100 µM (inactive),87.7 µM (inactive),14 µM (inactive),> 100 µM (inactive),> 100 µM (inactive),20.4 µM (inactive),10.4 µM (inactive),3.08 µM (inactive),> 100 µM (inactive),6.41 µM,26.4 µM (inactive),6.24 µM (inactive),5.09 µM (inactive),14.8 µM (inactive),9.93 µM (inactive),22.9 µM (inactive),4.35 µM (inactive),
CC(C(=O)N1c2ccccc2Sc2ccccc21)N1c2ccccc2Sc2ccccc21 (centres undefined),> 100 µM (inactive),42.9 µM (inactive),> 100 µM (inactive),> 100 µM (inactive),74.8 µM (inactive),40.1 µM (inactive),> 100 µM (inactive),> 100 µM (inactive),72.3 µM (inactive),98.4 µM (inactive),> 100 µM (inactive),> 100 µM,26.2 µM (inactive),> 100 µM (inactive),84.1 µM (inactive),> 100 µM (inactive),,> 100 µM (inactive),,
Brc1ccc2c3c1[C@H]1O[C@H]1c1cccc(c1-3)[C@@H]1O[C@H]21,16.5 µM (inactive),17.4 µM (inactive),,20.2 µM (inactive),17.8 µM (inactive),24.5 µM (inactive),18.3 µM (inactive),,8.11 µM (inactive),15.5 µM (inactive),13 µM (inactive),21.3 µM,20.5 µM (inactive),,2.65 µM (inactive),22 µM (inactive),17.8 µM (inactive),13.2 µM (inactive),10.4 µM (inactive),
CC1C2C=CC1C(c1c3ccc(=O)c(O)c-3oc3c(O)c(O)ccc13)C2C(=O)O (centres undefined),> 100 µM (inactive),20.7 µM (inactive),,> 100 µM (inactive),35.6 µM (inactive),10.2 µM (inactive),> 100 µM (inactive),> 100 µM (inactive),> 100 µM (inactive),43.2 µM (inactive),> 100 µM (inactive),47.2 µM,75 µM (inactive),> 100 µM (inactive),21.4 µM (inactive),35 µM (inactive),> 100 µM (inactive),27.8 µM (inactive),,> 100 µM (inactive)
O=C1NC(=S)NC(=O)C1=C/C=C/c1ccc([N+](=O)[O-])cc1,10.6 µM (inactive),14 µM (inactive),13.8 µM (inactive),18.3 µM (inactive),13.9 µM (inactive),19.1 µM (inactive),16.4 µM (inactive),13.1 µM (inactive),23.8 µM (inactive),17.3 µM (inactive),16.1 µM (inactive),14.3 µM,14.4 µM (inactive),27 µM (inactive),3.72 µM (inactive),21.1 µM (inactive),15.2 µM (inactive),17.8 µM (inactive),,18.4 µM (inactive)
Cc1cccc(/C=C2\CCCc3ccccc3C2=O)c1,24.3 µM (inactive),16.9 µM (inactive),18.7 µM (inactive),15 µM (inactive),25.4 µM (inactive),20.6 µM (inactive),16.7 µM (inactive),,18.5 µM (inactive),19.5 µM (inactive),28.6 µM (inactive),18.7 µM,15 µM (inactive),16.8 µM (inactive),18 µM (inactive),24.2 µM (inactive),30.4 µM (inactive),15 µM (inactive),12.7 µM (inactive),
CC(=O)O[C@H]1C(=O)[C@@]2(C)[C@H]([C@H](OC(=O)c3ccco3)[C@]3(O)C[C@H](OC(=O)[C@H](O)[C@@H](NC(=O)c4ccccc4)c4ccccc4)C(C)=C1C3(C)C)[C@]1(OC(C)=O)CO[C@@H]1C[C@@H]2O,2.81 µM (inactive),0.034 µM (active),0.0356 µM (active),0.333 µM (active),0.412 µM (active),0.429 µM (active),0.0594 µM (active),0.681 µM (active),0.0393 µM (active),1.45 µM (inactive),0.676 µM (active),15.1 µM,,0.164 µM (active),0.078 µM (active),0.518 µM (active),14.3 µM (inactive),0.059 µM (active),0.309 µM (active),0.296 µM (active)
Cc1cc(NCc2ccccc2)c2ccccc2[n+]1CCCCCCCCCC[n+]1c(C)cc(NCc2ccccc2)c2ccccc21.[O-][Cl+3]([O-])([O-])[O-].[O-][Cl+3]([O-])([O-])[O-],0.569 µM (active),0.318 µM (active),0.308 µM (active),2.19 µM (inactive),0.247 µM (active),,0.458 µM (active),1.96 µM (inactive),0.345 µM (active),0.391 µM (active),0.692 µM (active),1.89 µM,0.649 µM (active),0.228 µM (active),0.271 µM (active),0.394 µM (active),1.44 µM (inactive),0.324 µM (active),19.5 µM (inactive),0.562 µM (active)
Cc1ccc(S(=O)(=O)N/N=C2/CCC(C(C)(C)C)CC2Br)cc1 (centres undefined),32.1 µM (inactive),22.7 µM (inactive),21.2 µM (inactive),19.5 µM (inactive),28 µM (inactive),17.8 µM (inactive),13.7 µM (inactive),,29.4 µM (inactive),34.5 µM (inactive),42.6 µM (inactive),34 µM,26.1 µM (inactive),34.1 µM (inactive),19.8 µM (inactive),34 µM (inactive),28.1 µM (inactive),23.1 µM (inactive),18.2 µM (inactive),
O=C(c1cccc(F)c1F)N1CCc2c([nH]c3ccccc23)C1c1ccc2c(c1)OCO2 (centres undefined),40.3 µM (inactive),4.27 µM (inactive),4.79 µM (inactive),30.1 µM (inactive),11.7 µM (inactive),,4.2 µM (inactive),4.99 µM (inactive),8.32 µM (inactive),3.09 µM (inactive),18.2 µM (inactive),3.73 µM,26.5 µM (inactive),6.56 µM (inactive),4.22 µM (inactive),7.08 µM (inactive),15.5 µM (inactive),8 µM (inactive),7.8 µM (inactive),
